Source: US11358977B2, “Deuterated pyridone amides and prodrugs thereof as modulators of sodium channels” (VERTEX PHARMACEUTICALS INCORPORATED, priority 2017, dated 2022)

Experiments:
[1] = In vivo pharmacokinetic study, rat IV; set-up: species or system Male Sprague Dawley rats; conditions: male, Sprague Dawley, plasma, rat IV bolus, cassette, nominal 0.5 mg/kg
Description: General Procedures. Concentrations of the test compounds in plasma were determined using a high performance liquid chromatography/tandem mass spectrometry (HPLC/MS/MS) method. The test compounds along with the internal standard (IS) were extracted from plasma (20 μL) by direct protein precipitation with acetonitrile (1:25 ratio of plasma/acetonitrile). After centrifugation, the supernatant extract (10 μL) was injected onto the LC/MS/MS system. The HPLC system included a Phenomenex Luna C8 column, 3 micron, 2 mm diameter×30 mm long eluted with a gradient mobile phase consisting of 0.1% formic acid in water or in acetonitrile. The analytes were detected by MS/MS with Electrospray Ionization (ESI) in the mode of multiple reaction monitoring (MRM). The lower limit of quantitation (LLOQ) was 1.00 ng/mL. The linear range of the assay was from 1 to 3000 ng/mL. The assay accuracy was within 20% of the nominal values.
Plasma concentration-time profiles of the test compounds were analyzed by noncompartmental pharmacokinetic methods using PK module in Watson, Version 7.4.2 (Thermo Scientific). Pharmacokinetic parameters including AUCa11, AUC0-∞, C0, Cl, Vss and t1/2 were determined.
Descriptive statistical data of plasma concentrations and pharmacokinetic parameter estimates were calculated, including the mean, standard deviation (SD), and coefficient of variation (% CV) using Microsoft Excel 2010.
Rat IV Study. Compounds 7 and 10 were administered simultaneously in a single intravenous bolus to Male Sprague Dawley rats (n=3) via jugular cannula. The nominal dose of each compound was 0.5 mg/kg. The cassette dosing solution was formulated in D5W with additives Animals had free access to food and water before and after dosing. Blood samples (approximately 0.25 mL each) were collected via a carotid artery catheter prior to dosing and at 0 (predose), 5 min, 10 min, 0.25, 0.5, 1, 2, 4, 8, 12, 24 hours post dose. Each blood sample was collected into a tube that was kept on wet ice and contained potassium EDTA as the anticoagulant. Plasma was separated and stored at approximately −70° C. until analysis.
Plasma samples and dosing solutions were analyzed using a liquid chromatography/tandem mass spectrometry (LC/MS/MS) method to determine the concentrations of Compounds 7 and 10 with a lower limit of quantitation (LLOQ) of 1.00 ng/mL. The average plasma concentrations of Compounds 7 and 10 are plotted in FIG. 5 and are also presented in tabular form in Table 5.
Plasma concentration vs. time data were subjected to noncompartmental pharmacokinetic (PK) analysis. To determined the measured dose of each compound, the dose formulation (50 μL) was aliquoted into a cluster tube at the time of dosing. Then 450 μL of DMSO was added to the tube to dilute it 10×. Then the diluted dosing solution was spiked into rat blank plasma with 100× dilution. The resulting plasma sample was analyzed along with the plasma samples collected from rats that were dosed with the compounds, using the same LC/MS/MS method.

[2] = In vitro microsomal metabolic stability assay, dog; format: in vitro ADME; conditions: dog liver microsomes 0.25 mg/mL, 1.0 μM compound, NADPH
Description: (§1) Materials. Rat, Dog, Monkey and Human liver microsomes (20 mg/mL) were obtained from Xenotech, LLC (Lenexa, Kans.). P-nicotinamide adenine dinucleotide phosphate, reduced form (NADPH), magnesium chloride (MgCl2), and dimethyl sulfoxide (DMSO) were purchased from Sigma-Aldrich.
(§2) Methods. […] The 10 mM stock solutions were diluted to 100 μM in DMSO. In each cluster polypropylene tube, 190.7 μL of 100 mM phosphate buffer, pH 7.4 was added, then 2.5 μL of liver mocrosomes (20 mg/mL, rat, dog, monkey or human) was added, then a 2 μL aliquot of the 100 μM test compound was added, and the mixture was pre-warmed for 10 minutes. Reactions were initiated by addition of 4.8 μL of pre-warmed NADPH solution (100 mM in 100 mM phosphate buffer). The final reaction volume was 200 μL and contained 0.25 mg/mL rat, dog, monkey or human liver microsomes, 1.0 μM test compound, and 2.4 mM NADPH in 0.1 M potassium phosphate buffer, pH 7.4. The reaction mixtures were incubated at 37° C., and the reactions were quenched at 0, 15, 30 and 60 minutes by adding 200 μL of ice-cold quench solution (ACN:MeOH:0.1% formic acid in water 2:2:1) containing internal standard, n=3 per time point. The tubes were centrifuged and supernatants were analyzed for amounts of the test compound remaining by LC-MS/MS. The HPLC system included a Phenomenex Luna C8 column, 3 micron, 2 mm diameter×30 mm long eluted with a gradient mobile phase consisting of 0.1% formic acid in water or in acetonitrile. The analytes were detected by MS/MS with Electrospray Ionization (ESI) in the mode of multiple reaction monitoring (MRM). The injection volume was 10 μL.

[3] = In vitro microsomal metabolic stability assay, rat; format: in vitro ADME; conditions: rat liver microsomes 0.25 mg/mL, 1.0 μM compound, NADPH
Description: as §1, §2

[4] = In vitro microsomal metabolic stability assay, human; format: in vitro ADME; conditions: human liver microsomes 0.25 mg/mL, 1.0 μM compound, NADPH
Description: as §1, §2

[5] = In vitro microsomal metabolic stability assay, monkey; format: in vitro ADME; conditions: monkey liver microsomes 0.25 mg/mL, 1.0 μM compound, NADPH
Description: as §1, §2

[6] = In vitro hepatocyte assay: prodrug conversion to parent compound; format: in vitro ADME, human
Description: Materials. Cryopreserved human hepatocytes and Cryopreserved Hepatocytes Recovery Medium (CHRM™) were purchased from Life Technologies (Carlsbad, Calif.). Gibco™ Leibovitz's L-15 Medium was purchased from Fisher Scientific (Waltham, Mass.).
Methods. 10 mM stock solutions containing Compound 20 and Compound 13 were prepared in DMSO. Equal volumes of the two 10 mM stock solutions were mixed to form a combination stock solution containing Compound 20 and Compound 13 in concentrations of 5 mM each. The 5 mM combination stock solution was diluted to a concentration of 50 μM of each compound in DMSO (“50 μM combination stock”). Cryopreserved human hepatocytes were thawed in CHRM™ medium and prepared as a suspension in incubation medium (L-15 Medium with supplements containing glucose, HEPES buffer and NaHCO3), with the final cell concentration of 0.625 million cells/mL. In a 48 well plate, 1 μL of the 50 μM combination stock and then 199 μL of hepatocyte suspension (0.625 million cells/mL) were added to each well. The plate was covered and incubated at 37° C. in an incubator with gentle shaking (50 rpm). The reactions were quenched at 0, 0.25, 0.5, 1 and 2 hours by adding 200 μL of ice-cold quench solution (ACN:MeOH:0.1% aqueous formic acid, 2:2:1) containing internal standard (n=3 per time point). […] LC-MS/MS analysis was conducted using a Phenomenex Luna C8 column (3 micron, 2 mm diameter×30 mm long, at room temperature) eluted with a gradient consisting of mobile phases of 0.1% formic acid in water and 0.1% formic acid in acetonitrile at a total flow rate of 0.6 mL/min and a total run time of 4.5 minutes. The analytes were detected by MS/MS with Electrospray Ionization (ESI) in the mode of multiple reaction monitoring (MRM). The injection volume was 10 μL.

## Cc1cc(F)ccc1Oc1cc(C(F)(F)F)ccc1C(=O)Nc1cc[nH]c(=O)c1 [Compound 10, 2-(4-fluoro-2-methylphenoxy)-N-(2-oxo-1,2-dihydropyridin-4-yl)-4-(trifluoromethyl)benzamide, reference compound]
[1]; 0.083 hours
  concentration at 0.083 h: 391 ng/mL
[1]; 0.167 hours
  concentration at 0.167 h: 349 ng/mL
[1]; 0.25 hours
  concentration at 0.25 h: 316 ng/mL
[1]; 0.5 hours
  concentration at 0.5 h: 239 ng/mL
[1]; 1 hour
  concentration at 1 h: 174 ng/mL
[1]; 2 hours
  concentration at 2 h: 111 ng/mL
[1]; 4 hours
  concentration at 4 h: 51.6 ng/mL
[1]; 8 hours
  concentration at 8 h: 14.3 ng/mL
[1]; 12 hours
  concentration at 12 h: 4.27 ng/mL
[1]; noncompartmental analysis
  AUC: 415 ng·h/mL
  AUC(0-inf): 422 ng·h/mL
  C0: 245 ng/mL
  clearance: 22.1 mL/min/kg
  half-life: 2.2 h
[1]; noncompartmental analysis, read-out: Vss
  Vd: 3.4 L/kg
[2]; 0 min
  % remaining: 100%
[2]; 15 min
  % remaining: 85.9%
[2]; 30 min
  % remaining: 85.4%
[2]; 60 min
  % remaining: 85.7%
[3]; 0 min
  % remaining: 100%
[3]; 15 min
  % remaining: 108%
[3]; 30 min
  % remaining: 102%
[3]; 60 min
  % remaining: 87.4%
[4]; 0 min
  % remaining: 100%
[4]; 15 min
  % remaining: 110%
[4]; 30 min
  % remaining: 105%
[4]; 60 min
  % remaining: 106%
[5]; 0 min
  % remaining: 100%
[5]; 15 min
  % remaining: 96.4%
[5]; 30 min
  % remaining: 92.4%
[5]; 60 min
  % remaining: 91.4%

## Cc1cc(F)ccc1Oc1cc(C(F)(F)F)ccc1C(=O)Nc1ccn(COP(=O)(O)O)c(=O)c1 [Compound 20, (4-(2-(4-fluoro-2-methylphenoxy)-4-(trifluoromethyl)benzamido)-2-oxopyridin-1(2H)-yl)methyl dihydrogen phosphate, reference compound]
[6]; cryopreserved human hepatocytes in suspension, cryopreserved human hepatocytes 0.625 million cells/mL, 37° C., Compounds 20 and 13 co-incubated, read-out: t1/2 in human hepatocytes
  half-life at 0.25 µM: < 0.5 h
[6]; human hepatocytes, LC-MS/MS, Compound 20 to Compound 10, Compound 13 to Compound 7
  conversion of prodrug to parent compound: fast conversion
[6]; human hepatocytes, time 0 hr
  % remaining: 100%
[6]; human hepatocytes, time 0.25 hr
  % remaining: 75.1%
[6]; human hepatocytes, time 0.5 hr
  % remaining: 32.7%
[6]; human hepatocytes, time 1 hr
  % remaining: 11.2%
[6]; human hepatocytes, time 2 hr
  % remaining: 11.6%
